Holding throughout (type): cell-based
The subject of test [1] is IL-6 (THP-1 cells). Nature of the test: Inhibition of IL-6 in LPS-stimulated THP-1 monocytes (HTRF). The conditions noted are these: Homo sapiens; for EC50: LPS 500 ng/mL, IL-6 by HTRF; for inhibition at 10 µM: LPS stimulated, IL-6, at 10 μM, read-out: percent inhibition at 10 μM (given for EC50 of >10 μM). The essentials:
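IL-6 release was read as the HTRF 665/620 nm ratio after 22 h of 500 ng/mL LPS at 37 °C. Before stimulation, THP-1 cells kept 24 h in 1% FBS were exposed 2 h to a 10-point 1:3 compound series starting at 10 μM, in 0.1% DMSO. Four-parameter EC50s came from DMSO-normalized duplicates, with % inhibition at 10 μM reported beyond 10 μM.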

Test [2] concerns SW480 colon cancer cells. As to the kind of experiment: Cell viability assay (CellTiter-Blue), four days. The conditions noted are these: Homo sapiens, 96 h; for EC50: CellTiter-Blue cell viability; for inhibition at 10 µM: read-out: percent inhibition at 10 μM (given for EC50 of >10 μM). The essentials:
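Resazurin reduction (Ex 560/Em 590 nm, ~3 h reagent incubation) served as the viability read-out after SW480 cells were treated for four days at 37 °C. Doses ran from 10 μM down to 0.0045 μM in eight 1:3 steps. Curves fitted non-linearly for EC50, else % inhibition at 10 μM reported.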
For orientation: The colour change of resazurin is a common sign of viable cells or microbes.

The subject of test [3] is primary human fibroblasts derived from IPF patients (LL29 cells), α-smooth muscle actin (αSMA). As to the kind of experiment: Inhibition of the fibrotic process: TGF-β1-treated primary human fibroblasts from IPF patients, αSMA staining. The conditions noted are these: Fibroblast, 96 h, 4 days; for EC50: LL29 fibroblasts from IPF patients, TGF-β1 20 ng/mL, inhibition of fibrotic process; for inhibition at 10 µM: LL29 fibroblasts, TGF-β1 treated, read-out: percent inhibition at 10 μM (given for EC50 of >10 μM). The gist of the method: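 EC50 values come from non-linear fits of the αSMA-positive percentage among SYTOX-excluded live cells, normalized to TGF-β1 plus DMSO controls, or appear as % inhibition at 10 μM when above 10 μM. Fibrosis was induced in IPF-derived LL29 fibroblasts by 20 ng/mL TGF-β1 over 4 days, with 1:2 compound dilutions from 10 μM.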

In general, EC50 refers to the midpoint of the concentration-response curve. Low values mean a more potent agent, high ones a less potent agent. In general, inhibition refers to the relative decrease from the control value, in per cent.

As to `CN(C)c1cncc(-c2ccc3[nH]nc(-c4nc5c(-c6cccs6)ccnc5[nH]4)c3n2)c1` [Compound 343, N,N-dimethyl-5-(3-(7-(thiophen-2-yl)-3H-imidazo[4,5-b]pyridin-2-yl)-1H-pyrazolo [4,3-b]pyridin-5-yl)pyridin-3-amine], the EC50 in test [1] is 0.004 µM; in test [2], greater than 10 µM; in test [3], 1.18 µM. Further, the inhibition at 10 µM in test [2] was found to be 17.5%.

Turning to `Cc1ccc(-c2ccnc3[nH]c(-c4n[nH]c5ccc(-c6cncc(NC(=O)C7CCCC7)c6)nc45)nc23)s1` [Compound 414, N-(5-(3-(7-(5-Methylthiophen-2-yl)-3H-imidazo[4,5-b]pyridin-2-yl)-1H-pyrazolo[4,3-b]pyridin-5-yl)pyridin-3-yl)cyclopentanecarboxamide], the EC50 in test [1] was 1.85 µM; in test [2], greater than 10 µM; in test [3] it was 0.066 µM. Also, the inhibition at 10 µM in test [2] stood at 14.7%.

With `CCNCc1cncc(-c2ccc3[nH]nc(-c4nc5c(-c6cc(F)cc(NCCN(C)C)c6)ccnc5[nH]4)c3n2)c1` [Compound 454, N^1-(3-(2-(5-(5-((ethylamino)methyl)pyridin-3-yl)-1H-pyrazolo[4,3-b]pyridin-3-yl)-3H-imidazo[4,5-b]pyridin-7-yl)-5-fluorophenyl)-N^2,N^2-dimethylethane-1,2-diamine], the EC50 in test [1] is greater than 10 µM; in test [2] it was greater than 10 µM; in test [3] it was 3.51 µM. Besides, the inhibition at 10 µM came to 36.4% in test [1] and 42.2% in test [2].

Regarding `CCCCC(=O)Nc1cncc(-c2ccc3[nH]nc(-c4nc5c(-c6cc(F)cc(NCCN(C)C)c6)ccnc5[nH]4)c3n2)c1` [Compound 467, N-(5-(3-(7-(3-((2-(dimethylamino)ethyl)amino)-5-fluorophenyl)-3H-imidazo[4,5-b]pyridin-2-yl)-1H-pyrazolo[4,3-b]pyridin-5-yl)pyridin-3-yl)pentanamide], the EC50 in test [1] is greater than 10 µM; in test [2], greater than 10 µM; in test [3], 2.26 µM. Moreover, the inhibition at 10 µM in test [1] worked out at 23%; in test [2], 2.7%.

As for `CN(C)CCNc1cc(F)cc(-c2ccnc3[nH]c(-c4n[nH]c5ccc(-c6ccccn6)nc45)nc23)c1` [Compound 476, N^1-(3-Fluoro-5-(2-(5-(pyridin-2-yl)-1H-pyrazolo[4,3-b]pyridin-3-yl)-3H-imidazo[4,5-b]pyridin-7-yl)phenyl)-N^2,N^2-dimethylethane-1,2-diamine], the EC50 was greater than 10 µM in test [1], 9.02 µM in test [2] and 4.41 µM in test [3]. In addition, the inhibition at 10 µM in test [1] stood at 33%.

With `CS(=O)(=O)NCc1cc(F)cc(-c2ccnc3[nH]c(-c4n[nH]c5ccc(-c6cncc(NC(=O)c7ccccc7)c6)nc45)nc23)c1` [Compound 487, N-(5-(3-(7-(3-Fluoro-5-(methylsulfonamidomethyl)phenyl)-3H-imidazo[4,5-b]pyridin-2-yl)-1H-pyrazolo[4,3-b]pyridin-5-yl)pyridin-3-yl)benzamide], the EC50 in test [1], in test [2] and in test [3] was greater than 10 µM in each case. The results for the inhibition at 10 µM in test [1], in test [2] and in test [3] were 0%, 0.6% and 0%, respectively.

For the compound `CCCC(=O)Nc1cncc(-c2ccc3[nH]nc(-c4nc5c(-c6cc(F)cc(CNS(C)(=O)=O)c6)ccnc5[nH]4)c3n2)c1` [Compound 493, N-(5-(3-(7-(3-fluoro-5-(methylsulfonamidomethyl)phenyl)-3H-imidazo[4,5-b]pyridin-2-yl)-1H-pyrazolo[4,3-b]pyridin-5-yl)pyridin-3-yl)butyramide], the EC50 in test [1], in test [2] and in test [3] was greater than 10 µM throughout. For the same compound, the results for the inhibition at 10 µM in test [1], in test [2] and in test [3] were 23.4%, 3.9% and 0%, respectively.

Regarding `CS(=O)(=O)NCc1cc(F)cc(-c2ccnc3[nH]c(-c4n[nH]c5ccc(-c6cncnc6)nc45)nc23)c1` [Compound 503, N-(3-Fluoro-5-(2-(5-(pyrimidin-5-yl)-1H-pyrazolo[4,3-b]pyridin-3-yl)-3H-imidazo[4,5-b]pyridin-7-yl)benzyl)methanesulfonamide], the EC50 in test [1], in test [2] and in test [3] was greater than 10 µM throughout. Further, the figures for the inhibition at 10 µM in test [1], in test [2] and in test [3] were 29.6%, 0.9% and 0%, respectively.

`Fc1cccc(-c2ccnc3[nH]c(-c4n[nH]c5ccc(C6CCNCC6)nc45)nc23)c1` [Compound 505, 3-(7-(3-fluorophenyl)-3H-imidazo[4,5-b]pyridin-2-yl)-5-(piperidin-4-yl)-1H-pyrazolo[4,3-b]pyridine]: the EC50 is 3.48 µM in test [1], 8.3 µM in test [2] and 4.93 µM in test [3].

As for `Fc1cccc(-c2ccnc3[nH]c(-c4n[nH]c5ccc(-c6cn[nH]c6)nc45)nc23)c1` [Compound 507, 3-(7-(3-fluorophenyl)-3H-imidazo[4,5-b]pyridin-2-yl)-5-(1H-pyrazol-4-yl)-1H-pyrazolo[4,3-b]pyridine], the EC50 in test [1], in test [2] and in test [3] was greater than 10 µM in each case. The inhibition at 10 µM in test [1] was 35.9%; in test [2], 0%; in test [3], 16.2%.

For `Cn1cc(-c2ccc3[nH]nc(-c4nc5c(-c6cccc(F)c6)ccnc5[nH]4)c3n2)cn1` [Compound 508, 3-(7-(3-fluorophenyl)-3H-imidazo[4,5-b]pyridin-2-yl)-5-(1-methyl-1H-pyrazol-4-yl)-1H-pyrazolo[4,3-b]pyridine], the EC50 in test [1], in test [2] and in test [3] was greater than 10 µM throughout. Also, the inhibition at 10 µM came to 15.5% in test [1], 0% in test [2] and 8.1% in test [3].

Consider `Fc1cccc(-c2ccnc3[nH]c(-c4n[nH]c5ccc(-c6cncc(OC7CCNCC7)c6)nc45)nc23)c1` [Compound 512, 3-(7-(3-fluorophenyl)-3H-imidazo[4,5-b]pyridin-2-yl)-5-(5-(piperidin-4-yloxy)pyridin-3-yl)-1H-pyrazolo[4,3-b]pyridine], for which the concentration giving a half-maximal response (EC50) in test [1] was greater than 10 µM; in test [2], greater than 10 µM; in test [3] it was 1.66 µM. Besides, the values for the inhibition at 10 µM in test [1] and in test [2] were 35.7% and 15.7%, respectively.

Turning to `c1cncc(-c2ccnc3[nH]c(-c4n[nH]c5ccc(-c6cncc(OC7CCCCC7)c6)nc45)nc23)c1` [Compound 559, 5-(5-(Cyclohexyloxy)pyridin-3-yl)-3-(7-(pyridin-3-yl)-3H-imidazo[4,5-b]pyridin-2-yl)-1H-pyrazolo[4,3-b]pyridine], the values for the EC50 in test [1], in test [2] and in test [3] were greater than 10 µM, greater than 10 µM and 5.18 µM, respectively. Also, the inhibition at 10 µM in test [1] worked out at 31.6%; in test [2], 4%.

Regarding `Oc1cncc(-c2ccc3[nH]nc(-c4nc5c(-c6cccnc6)ccnc5[nH]4)c3n2)c1` [Compound 565, 5-(3-(7-(Pyridin-3-yl)-3H-imidazo[4,5-b]pyridin-2-yl)-1H-pyrazolo[4,3-b]pyridin-5-yl)pyridin-3-ol], the EC50 is 9.48 µM in test [1], greater than 10 µM in test [2] and greater than 10 µM in test [3]. The inhibition at 10 µM amounted to 5.9% in test [2] and 0% in test [3].

As for `c1cc(-c2ccnc3[nH]c(-c4n[nH]c5ccc(-c6cncc(OC7CCNCC7)c6)nc45)nc23)ccn1` [Compound 576, 5-(5-(Piperidin-4-yloxy)pyridin-3-yl)-3-(7-(pyridin-4-yl)-3H-imidazo[4,5-b]pyridin-2-yl)-1H-pyrazolo[4,3-b]pyridine], the values for the EC50 in test [1], in test [2] and in test [3] were greater than 10 µM, greater than 10 µM and 4.07 µM, respectively. The inhibition at 10 µM in test [1] came to 38.1%; in test [2] it was 1.7%.

Take `c1ccc(COc2cncc(-c3ccc4[nH]nc(-c5nc6c(-c7ccncc7)ccnc6[nH]5)c4n3)c2)cc1` [Compound 582, 5-(5-(Benzyloxy)pyridin-3-yl)-3-(7-(pyridin-4-yl)-3H-imidazo[4,5-b]pyridin-2-yl)-1H-pyrazolo[4,3-b]pyridine]: the EC50 was greater than 10 µM in test [1], greater than 10 µM in test [2] and 0.648 µM in test [3]. Besides, the inhibition at 10 µM in test [1] was determined as 3.2%; in test [2] it was 2.6%.

On to `c1cc(-c2ccnc3[nH]c(-c4n[nH]c5ccc(-c6cnccn6)nc45)nc23)ccn1` [Compound 584, 5-(Pyrazin-2-yl)-3-(7-(pyridin-4-yl)-3H-imidazo[4,5-b]pyridin-2-yl)-1H-pyrazolo[4,3-b]pyridine], for which the concentration giving a half-maximal response (EC50) in test [1], in test [2] and in test [3] was greater than 10 µM throughout. The figures for the inhibition at 10 µM in test [1], in test [2] and in test [3] were 22%, 10.8% and 4.5%, respectively.

The record behind these values is US10329309B2, “3-(3H-imidazo[4,5-B]pyridin-2-yl)-1H-pyrazolo[4,3-B]pyridines and therapeutic uses thereof” (Samumed, LLC, priority 2015, dated 2019).
